Data as given in ChEMBL document CHEMBL3399945, “A class of sulfonamide carbonic anhydrase inhibitors with neuropathic pain modulating effects” (Bioorg Med Chem, 2015).

Columns and labels:
Mus musculus [1] = test: Inhibition of oxaliplatin-induced neuropathic pain in po dosed CD-1 mouse model assessed as latency to pain-related behavior after 15 to 45 mins by cold plate test; format: functional
Carbonic anhydrase 12 = Carbonic anhydrase 12 (Homo sapiens, UniProt O43570)
Description: Inhibition of human recombinant CA-12 after 15 mins by stopped-flow CO2 hydrase assay

Carbonic anhydrase 2 = Carbonic anhydrase 2 (Homo sapiens, UniProt P00918); test: Inhibition of human recombinant CA-2 after 15 mins by stopped-flow CO2 hydrase assay
Carbonic anhydrase 7 = Carbonic anhydrase 7 (Homo sapiens, UniProt P43166); test: Inhibition of human recombinant CA-7 after 15 mins by stopped-flow CO2 hydrase assay
Sequence of Carbonic anhydrase 7 (P43166 whole entry): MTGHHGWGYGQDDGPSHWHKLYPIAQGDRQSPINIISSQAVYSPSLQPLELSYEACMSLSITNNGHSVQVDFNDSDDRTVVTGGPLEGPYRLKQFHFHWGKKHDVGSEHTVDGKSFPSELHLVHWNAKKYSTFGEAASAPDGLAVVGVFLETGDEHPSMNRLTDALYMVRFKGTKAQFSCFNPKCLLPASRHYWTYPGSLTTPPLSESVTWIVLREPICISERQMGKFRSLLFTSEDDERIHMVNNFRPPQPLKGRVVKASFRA

Carbonic anhydrase 9 = Carbonic anhydrase 9 (Homo sapiens, UniProt Q16790)
Description: Inhibition of human recombinant CA-9 after 15 mins by stopped-flow CO2 hydrase assay

Carbonic anhydrase 1 = Carbonic anhydrase 1 (Homo sapiens, UniProt P00915); test: Inhibition of human recombinant CA-1 after 15 mins by stopped-flow CO2 hydrase assay
Sequence of Carbonic anhydrase 1 (P00915 whole entry): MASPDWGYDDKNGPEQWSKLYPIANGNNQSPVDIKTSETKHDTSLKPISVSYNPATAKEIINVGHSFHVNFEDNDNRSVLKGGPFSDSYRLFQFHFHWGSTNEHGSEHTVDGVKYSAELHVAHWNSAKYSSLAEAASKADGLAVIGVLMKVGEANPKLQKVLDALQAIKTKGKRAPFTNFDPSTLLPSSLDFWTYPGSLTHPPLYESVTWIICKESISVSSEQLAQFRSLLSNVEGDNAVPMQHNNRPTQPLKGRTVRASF

Mus musculus [2] = test: Inhibition of oxaliplatin-induced neuropathic pain in po dosed CD-1 mouse model assessed as latency to pain-related behavior after 15 to 45 mins by cold plate test relative to acetazolamide; format: functional

Sequence of Carbonic anhydrase 12 (O43570 whole entry): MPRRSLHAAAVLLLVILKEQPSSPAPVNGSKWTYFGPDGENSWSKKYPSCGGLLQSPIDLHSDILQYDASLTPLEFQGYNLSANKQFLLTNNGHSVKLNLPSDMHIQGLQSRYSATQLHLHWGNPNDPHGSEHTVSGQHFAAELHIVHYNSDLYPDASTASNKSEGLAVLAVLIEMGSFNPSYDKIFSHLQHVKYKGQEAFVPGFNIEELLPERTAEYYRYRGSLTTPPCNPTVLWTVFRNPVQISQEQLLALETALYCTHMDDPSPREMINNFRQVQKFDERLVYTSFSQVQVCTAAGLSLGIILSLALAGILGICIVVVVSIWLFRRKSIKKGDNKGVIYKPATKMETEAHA

Row | Ki (Carbonic anhydrase 12) | Ki (Carbonic anhydrase 2) | Ki (Carbonic anhydrase 7) | Ki (Carbonic anhydrase 9) | Ki (Carbonic anhydrase 1) | SMILES | minimal effective dose (Mus musculus [1]; CD-1, po, read-out: MED) | Ratio (Mus musculus [2]) | inhibition (Mus musculus [1])
1 |  |  |  |  |  | CC(=O)Nc1nnc(S(N)(=O)=O)s1 [ACETAZOLAMIDE] | 30 mg/kg |  | 
2 | 8.5 nM | 7.3 nM | 9.8 nM | 10.1 nM | 797 nM | CCCCOc1ccc(S(N)(=O)=O)cc1 |  |  | 
3 | 0.75 nM | 26 nM | 8.9 nM | 0.86 nM | 231 nM | NS(=O)(=O)c1ccc(OCc2c(F)c(F)c(F)c(F)c2F)cc1 |  |  | 
4 | 8 nM | 23.8 nM | 9.7 nM |  | 315 nM | NS(=O)(=O)c1ccc(OCc2ccc(F)cc2)cc1 |  |  | 
5 | 2.5 nM | 7.6 nM | 7.7 nM |  | 48.1 nM | NS(=O)(=O)c1nc2ccc(OCc3ccccc3)cc2s1 |  |  | 
6 | 13.6 nM | 23.1 nM | 9.5 nM | 8.1 nM | 246 nM | CCOc1ccc(S(N)(=O)=O)cc1 |  | 3 | Dose-dependent effect
7 | 10.7 nM | 31.7 nM | 86.4 nM |  | 453 nM | NS(=O)(=O)c1ccc(OCCN2CCOCC2)cc1 |  |  | 
8 | 10.5 nM | 20.3 nM | 8.3 nM | 17.9 nM | 762 nM | NS(=O)(=O)c1ccc(OCc2ccccc2)cc1 |  |  | 
9 | 1.2 nM | 7.8 nM | 9.4 nM | 2.4 nM | 207 nM | NS(=O)(=O)c1ccc(OCCc2ccccc2)cc1 |  |  | 
10 | 7.9 nM | 12.8 nM | 10.1 nM | 13.2 nM | 780 nM | CCCOc1ccc(S(N)(=O)=O)cc1 |  |  | 
11 | 50.4 nM | 22.1 nM | 70.7 nM | 34.1 nM | 5680 nM | NS(=O)(=O)c1ccc(OCC(c2ccccc2)c2ccccc2)cc1 |  |  | 
12 | 0.72 nM | 1.4 nM | 0.9 nM | 1.3 nM | 143 nM | NS(=O)(=O)c1ccc(OCc2ccc([N+](=O)[O-])cc2)cc1 |  |  | 
13 | 6.4 nM | 27.8 nM | 8.9 nM | 3.5 nM | 246 nM | NS(=O)(=O)c1ccc(OCc2ccc(Br)cc2)cc1 |  |  | 
14 | 33.8 nM | 41.6 nM | 97.2 nM | 21.6 nM | 3450 nM | NS(=O)(=O)c1ccc(OCC#Cc2ccccc2)cc1 |  |  | 
15 | 2.3 nM | 28.7 nM | 9.6 nM |  | 2340 nM | C#CCOc1ccc(S(N)(=O)=O)cc1 |  |  | 
16 | 6.2 nM | 52.1 nM | 73.8 nM | 10.3 nM | 2420 nM | NS(=O)(=O)c1nc2ccc(OCC#Cc3ccccc3)cc2s1 |  |  | 

Row | SMILES | Ki (Carbonic anhydrase 12) | Ki (Carbonic anhydrase 2) | Ki (Carbonic anhydrase 7) | Ki (Carbonic anhydrase 9) | Ki (Carbonic anhydrase 1) | minimal effective dose (Mus musculus [1]; CD-1, po, read-out: MED) | Ratio (Mus musculus [2]) | inhibition (Mus musculus [1])
17 | C=CCOc1ccc(S(N)(=O)=O)cc1 | 6.8 nM |  | 9.9 nM | 13.5 nM |  |  |  | 
18 | C#CCN(CC#C)c1ccc(S(N)(=O)=O)cc1 | 4.9 nM | 1780 nM | 8.6 nM | 9 nM | 6400 nM |  |  | 
19 | NS(=O)(=O)c1ccc2c(c1)CCN2C(=O)C(F)(F)F | 4.1 nM | 9.2 nM | 8.3 nM | 6.9 nM | 34.3 nM |  |  | 
